# Test results taken from article PMC4742234, “Screening of Drug Metabolizing Enzymes for the Ginsenoside Compound K In Vitro: An Efficient Anti-Cancer Substance Originating from Panax Ginseng” (PLoS ONE, 2016).
# Where “and” joins values, the source holds several entries; their conditions need not be identical. Identical values can stand only once.
# Tests used:
# CYP3A4 [1] = test system: CYP3A4; parameters: method as in Hao et al.(2008); details: baculosomes, ref Hao et al.(2008); cited from earlier work
# CYP3A4 [2] = biological target: T1, CYP3A4 (Homo sapiens, UniProt P08684); test: Metabolic clearance rate of CK with recombinant CYP3A4 under ketoconazole; type: in vitro ADME; parameters: purchased Cypex Ltd. (U.K.); details: recombinant CYP3A4, CK 50 μM, ketoconazole 1 μM
# T1 sequence (P08684 whole entry, canonical isoform): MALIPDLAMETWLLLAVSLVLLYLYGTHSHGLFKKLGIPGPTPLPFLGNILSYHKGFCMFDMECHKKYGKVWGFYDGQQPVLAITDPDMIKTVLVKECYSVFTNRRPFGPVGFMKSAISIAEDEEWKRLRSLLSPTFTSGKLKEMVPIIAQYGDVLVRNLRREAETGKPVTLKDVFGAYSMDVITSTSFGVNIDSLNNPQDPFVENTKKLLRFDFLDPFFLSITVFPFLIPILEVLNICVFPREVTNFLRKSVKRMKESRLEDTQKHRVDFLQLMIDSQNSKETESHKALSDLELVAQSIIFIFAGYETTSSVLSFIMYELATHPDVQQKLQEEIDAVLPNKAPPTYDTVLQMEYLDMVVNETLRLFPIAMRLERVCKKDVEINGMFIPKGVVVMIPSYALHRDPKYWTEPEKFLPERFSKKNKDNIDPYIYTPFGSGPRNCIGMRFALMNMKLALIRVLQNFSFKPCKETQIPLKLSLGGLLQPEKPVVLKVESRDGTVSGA
# Method: (§1) The method was conducted according to our previous study with some modifications. The CYP isoform-specific probe reactions used were phenacetin O-deethylation (for CYP1A2), coumarin 7-hydroxylation (for CYP2A6), tolbutamide 4-hydroxylation (for CYP2C9), metoprolol α-hydroxylation (for CYP2D6), chlorzoxazone 6-hydroxylation (for CYP2E1),S-Mephenytoin 4-hydroxylation (for CYP2C19), and midazolam 1-hydroxylation (for CYP3A4). The kinetic study of CK was conducted with HLMs. A 0.2 mL incubation mixture that consisted of CK (as a substrate), the HLMs (0.5 mg/mL) or CYP isoforms (10 pmol), and 0.1 M sodium phosphate buffer (pH 7.4) was pre-warmed for 5 min at 37°C. The reaction was initiated by the addition of 1 mg/mL triphosphopyridine nucleotide (NADPH). […]
# (§2) To screen the specific CYP isoform responsible for the CK metabolism, we determined the inhibitory effect of specific inhibitors on the metabolism of CK in the HLMs as described in detail previously. […] The inhibitory effects of the above specific inhibitors on the metabolic clearance rate of CK were evaluated separately to screen the CYP isoforms responsible for the CK metabolism. The relative activity of the CYP isoforms was calculated by dividing the peak area of CK when incubated with the inhibitor by that of CK from the negative controls. […]
# CYP2C9 = CYP2C9 (Homo sapiens, UniProt P11712); test: Effect of specific inhibitor sulfaphenazole on CK metabolism in HLMs; type: in vitro ADME; parameters: tissue Cypex Ltd. (U.K.); host or cells: pooled human liver microsomes; details: CK 50 μM, in the presence of sulfaphenazole 1 μM
# Chain of CYP2C9 (P11712 whole entry): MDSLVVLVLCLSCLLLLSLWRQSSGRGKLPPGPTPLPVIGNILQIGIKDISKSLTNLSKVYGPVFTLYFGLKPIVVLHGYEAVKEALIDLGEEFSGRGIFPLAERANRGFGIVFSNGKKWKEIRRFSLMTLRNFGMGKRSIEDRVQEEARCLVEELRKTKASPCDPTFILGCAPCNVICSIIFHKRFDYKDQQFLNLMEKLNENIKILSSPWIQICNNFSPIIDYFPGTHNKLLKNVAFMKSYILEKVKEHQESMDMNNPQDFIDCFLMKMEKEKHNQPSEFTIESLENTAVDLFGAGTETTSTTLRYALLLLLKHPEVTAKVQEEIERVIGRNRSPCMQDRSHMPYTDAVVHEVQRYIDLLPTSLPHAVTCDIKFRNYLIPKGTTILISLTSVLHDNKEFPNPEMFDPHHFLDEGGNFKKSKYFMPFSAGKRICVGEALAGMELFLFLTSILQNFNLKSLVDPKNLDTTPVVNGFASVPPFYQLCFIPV
# Method: as §1, §2
# CYP3A4 [3] = biological target: T1, CYP3A4; test: Effect of specific inhibitor ketoconazole on CK metabolism in HLMs; type: in vitro ADME; parameters: tissue Cypex Ltd. (U.K.); host or cells: pooled human liver microsomes; details: CK 50 μM, in the presence of ketoconazole 1 μM
# Method: as §1, §2
compound,measurement,setting,value
"CC(C)=CCC[C@](C)(OC1O[C@H](CO)[C@@H](O)[C@H](O)[C@H]1O)[C@H]1CC[C@]2(C)[C@@H]1[C@H](O)C[C@@H]1[C@@]3(C)CC[C@H](O)C(C)(C)[C@@H]3CC[C@]12C (stereo partly drawn) [CK, 20-O-β-(D-glucopyranosyl)-20(S)-protopanaxadiol]",CYP3A4 inhibition,CYP3A4 [1],moderate
same,"MCR of CK, of that of the control",CYP3A4 [2],13.2%
same,"metabolic clearance rate (MCR) of CK, of that of the control",CYP2C9,73.5±20.9% and 73.5%
same,"metabolic clearance rate (MCR) of CK, of that of the control",CYP3A4 [3],74.6±28.1% and 74.6%
